What was measured:
mHTT = test: Mutant and total HTT multiplex HTRF assay in Q48 HTT human embryonic stem cell line: mHTT; format: cell-based; conditions: Q48 HTT hESC, 48 hours
Experimental: (§1) The multiplex assay is performed in human embryonic stem cells (hESCs) which have been derived by Genea Biocells from human blastocysts of HD donors. Cells are plated at a density of 10,000 cells/well into 384-well collagen coated plates and left to adhere for 24 hours, compounds 1 to 82 are then added to cells and incubated for 48 hours (37° C., 5% CO2), cells are then lysed and the contents split into a black 384-well plate.
(§2) The black plates have a combination of HTRF labeled monoclonal antibodies added which recognize discrete areas of the HTT protein, the 2B7-Tb “donor” antibody (0.2 ng/well) recognizes a sequence at the N-terminus of the protein, an MW1-Alexa488 “acceptor 1” antibody (30 ng/well) recognizes an area in the polyQ region, whereas a MAB2166-d2 “acceptor 2” antibody (6 ng/well) recognizes a sequence beyond the polyQ region. The 2B7 antibody was obtained from Coriell (CH02024), the MW1 antibody from Millipore (MABN2427), and the MAB2166 antibody from Millipore (1HU-4C8).
(§3) These detection reagents are incubated with the cell lysate at room temperature for 4-6 hours before having their fluorescence quantified at 615 nm (donor) and 535 nm and 665 nm (acceptor 1 and 2 respectively). The donor/acceptor ratio between these signals indicates the relative quantities of mHTT and tHTT proteins. As shown in the Table 1, compounds 1 to 82 as described therein and in Table 2, had the following pIC50 values.

tHTT = test: Mutant and total HTT multiplex HTRF assay in Q48 HTT human embryonic stem cell line: tHTT; format: cell-based; conditions: Q48 HTT hESC, 48 hours
Experimental: as §1, §2, §3

Structure (SMILES): Cc1cnc2cc(-c3ccc(N(C)C4CC(C)(C)NC(C)(C)C4)nn3)c(O)cc2c1 [Compound 17, 3-methyl-7-(6-(methyl(2,2,6,6-tetramethylpiperidin-4-yl)amino)pyridazin-3-yl)quinolin-6-ol]
- Rating (based on mHTT potency) (mHTT): **** (a pIC50 value between 7.0 and 7.5 is indicated by four stars (****))
- mHTT pIC50 (mHTT): 7.2895
- tHTT pIC50 (tHTT): 7.424

Structure (SMILES): CN(c1ccc(-c2cc3cn(C)nc3cc2O)nn1)C1CC(C)(C)NC(C)(C)C1 [Compound 40, 2-methyl-5-(6-(methyl(2,2,6,6-tetramethylpiperidin-4-yl)amino)pyridazin-3-yl)-2H-indazol-6-ol]
- Rating (based on mHTT potency) (mHTT): *** (a pIC50 value between 6.5 and 7.0 is indicated by three stars (***))
- mHTT pIC50 (mHTT): 6.927
- tHTT pIC50 (tHTT): 6.994

Structure (SMILES): CN(c1nnc(-c2ccc(-c3ccn(C)c(=O)c3)cc2O)s1)C1CC(C)(C)NC(C)(C)C1 [Compound 49, 4-(3-hydroxy-4-(5-(methyl(2,2,6,6-tetramethylpiperidin-4-yl)amino)-1,3,4-thiadiazol-2-yl)phenyl)-1-methylpyridin-2(1H)-one]
- Rating (based on mHTT potency) (mHTT): *** (a pIC50 value between 6.5 and 7.0 is indicated by three stars (***))
- mHTT pIC50 (mHTT): 6.819
- tHTT pIC50 (tHTT): 6.6665

Structure (SMILES): CC1(C)CC(Oc2ccc(-c3ccc(-n4cccn4)cc3O)nn2)CCN1 (centres unmarked) [Compound 72, 2-(6-((2,2-dimethylpiperidin-4-yl)oxy)pyridazin-3-yl)-5-(1H-pyrazol-1-yl)phenol]
- Rating (based on mHTT potency) (mHTT): ** (a pIC50 value between 6 and 6.5 is indicated by two stars (**))
- mHTT pIC50 (mHTT): 6.21
- tHTT pIC50 (tHTT): 6.13

Structure (SMILES): CN(c1ccc(-c2ccc(-c3ccn(C4CC4)c(=O)c3)cc2O)nn1)C1CC(C)(C)NC(C)(C)C1 [Compound 26, 1-cyclopropyl-4-(3-hydroxy-4-(6-(methyl(2,2,6,6-tetramethylpiperidin-4-yl)amino)pyridazin-3-yl)phenyl)pyridin-2(1H)-one]
- Rating (based on mHTT potency) (mHTT): **** (a pIC50 value between 7.0 and 7.5 is indicated by four stars (****))
- mHTT pIC50 (mHTT): 7.1215
- tHTT pIC50 (tHTT): 7.0435

Structure (SMILES): CN(c1ccc(-c2ccc(-n3cccn3)cc2O)nn1)C1CC(C)(C)NC(C)(C)C1 [Compound 19, 2-(6-(methyl(2,2,6,6-tetramethylpiperidin-4-yl)amino)pyridazin-3-yl)-5-(1H-pyrazol-1-yl)phenol]
- Rating (based on mHTT potency) (mHTT): **** (a pIC50 value between 7.0 and 7.5 is indicated by four stars (****))
- mHTT pIC50 (mHTT): 7.2235
- tHTT pIC50 (tHTT): 7.178

Structure (SMILES): Cn1ccc(-c2ccc(-c3ccc(OC4CC(C)(C)NC(C)(C)C4)nn3)c(O)c2)cc1=O [Compound 29, 4-(3-hydroxy-4-(6-((2,2,6,6-tetramethylpiperidin-4-yl)oxy)pyridazin-3-yl)phenyl)-1-methylpyridin-2(1H)-one]
- Rating (based on mHTT potency) (mHTT): **** (a pIC50 value between 7.0 and 7.5 is indicated by four stars (****))
- mHTT pIC50 (mHTT): 7.0855
- tHTT pIC50 (tHTT): 7.074

Structure (SMILES): CN(c1ccc(-c2ccc(-c3ccnc(O)c3)cc2O)nn1)C1CC(C)(C)NC(C)(C)C1 [Compound 8, 4-(3-hydroxy-4-(6-(methyl(2,2,6,6-tetramethylpiperidin-4-yl)amino)pyridazin-3-yl)phenyl)pyridin-2-ol]
- Rating (based on mHTT potency) (mHTT): **** (a pIC50 value between 7.0 and 7.5 is indicated by four stars (****))
- mHTT pIC50 (mHTT): 7.4855
- tHTT pIC50 (tHTT): 7.4435

Structure (SMILES): COc1cc(-c2cnn(C)c2)cc(O)c1-c1ccc(N(C)C2CC(C)(C)NC(C)(C)C2)nn1 [Compound 20, 3-methoxy-2-(6-(methyl(2,2,6,6-tetramethylpiperidin-4-yl)amino)pyridazin-3-yl)-5-(1-methyl-1H-pyrazol-4-yl)phenol]
- Rating (based on mHTT potency) (mHTT): **** (a pIC50 value between 7.0 and 7.5 is indicated by four stars (****))
- mHTT pIC50 (mHTT): 7.22
- tHTT pIC50 (tHTT): 7.106

Structure (SMILES): Cc1ccc2cc(O)c(-c3ccc(N(C)C4CC(C)(C)NC(C)(C)C4)nn3)cc2n1 [Compound 15, 2-methyl-7-(6-(methyl(2,2,6,6-tetramethylpiperidin-4-yl)amino)pyridazin-3-yl)quinolin-6-ol]
- Rating (based on mHTT potency) (mHTT): **** (a pIC50 value between 7.0 and 7.5 is indicated by four stars (****))
- mHTT pIC50 (mHTT): 7.349
- tHTT pIC50 (tHTT): 7.283

Structure (SMILES): Cc1cc(-c2ccc(-c3nnc(N(C)C4CC(C)(C)NC(C)(C)C4)s3)c(F)c2)[nH]n1 [Compound 79, 5-(2-fluoro-4-(3-methyl-1H-pyrazol-5-yl)phenyl)-N-methyl-N-(2,2,6,6-tetramethylpiperidin-4-yl)-1,3,4-thiadiazol-2-amine]
- Rating (based on mHTT potency) (mHTT): * (a pIC50 value between 5 and 6 is indicated by a single star (*))
- mHTT pIC50 (mHTT): 5.9315
- tHTT pIC50 (tHTT): 6.01

Structure (SMILES): COc1ccc2cc(-c3ccc(N(C)C4CC(C)(C)NC(C)(C)C4)nn3)c(O)cc2c1 [Compound 57, 7-methoxy-3-(6-(methyl(2,2,6,6-tetramethylpiperidin-4-yl)amino)pyridazin-3-yl)naphthalen-2-ol]
- Rating (based on mHTT potency) (mHTT): *** (a pIC50 value between 6.5 and 7.0 is indicated by three stars (***))
- mHTT pIC50 (mHTT): 6.7085
- tHTT pIC50 (tHTT): 6.791

Structure (SMILES): CN(c1ccc(-c2cc3c(O)nccc3cc2O)nn1)C1CC(C)(C)NC(C)(C)C1 [Compound 25, 7-(6-(methyl(2,2,6,6-tetramethylpiperidin-4-yl)amino)pyridazin-3-yl)isoquinoline-1,6-diol]
- Rating (based on mHTT potency) (mHTT): **** (a pIC50 value between 7.0 and 7.5 is indicated by four stars (****))
- mHTT pIC50 (mHTT): 7.161
- tHTT pIC50 (tHTT): 7.128

Structure (SMILES): Cc1cc(-c2ccc(-c3ccc(N(C)C4CC(C)(C)NC(C)(C)C4)nn3)c(O)c2)ccn1 [Compound 35, 2-(6-(methyl(2,2,6,6-tetramethylpiperidin-4-yl)amino)pyridazin-3-yl)-5-(2-methylpyridin-4-yl)phenol]
- Rating (based on mHTT potency) (mHTT): **** (a pIC50 value between 7.0 and 7.5 is indicated by four stars (****))
- mHTT pIC50 (mHTT): 7.003
- tHTT pIC50 (tHTT): 6.877

Structure (SMILES): CN(c1ccc(-c2cc3ccc(C(N)=O)nc3cc2O)nn1)C1CC(C)(C)NC(C)(C)C1 [Compound 21, 7-hydroxy-6-(6-(methyl(2,2,6,6-tetramethylpiperidin-4-yl)amino)pyridazin-3-yl)quinoline-2-carboxamide]
- Rating (based on mHTT potency) (mHTT): **** (a pIC50 value between 7.0 and 7.5 is indicated by four stars (****))
- mHTT pIC50 (mHTT): 7.203
- tHTT pIC50 (tHTT): 7.221

Structure (SMILES): Cc1nc2cc(-c3ccc(N(C)C4CC(C)(C)NC(C)(C)C4)nn3)c(O)cc2[nH]1 [Compound 54, 2-methyl-5-(6-(methyl(2,2,6,6-tetramethylpiperidin-4-yl)amino)pyridazin-3-yl)-1H-benzo[d]imidazol-6-ol]
- Rating (based on mHTT potency) (mHTT): *** (a pIC50 value between 6.5 and 7.0 is indicated by three stars (***))
- mHTT pIC50 (mHTT): 6.728
- tHTT pIC50 (tHTT): 6.753

Structure (SMILES): CN(c1nnc(-c2c(O)cc(-c3cn[nH]c3)cc2Cl)s1)C1CC(C)(C)NC(C)(C)C1 [Compound 9, 3-chloro-2-(5-(methyl(2,2,6,6-tetramethylpiperidin-4-yl)amino)-1,3,4-thiadiazol-2-yl)-5-(1H-pyrazol-4-yl)phenol]
- Rating (based on mHTT potency) (mHTT): **** (a pIC50 value between 7.0 and 7.5 is indicated by four stars (****))
- mHTT pIC50 (mHTT): 7.4435
- tHTT pIC50 (tHTT): 7.353

Structure (SMILES): CN(c1ccc(-c2cc3nccnc3cc2O)nn1)C1CC(C)(C)NC(C)(C)C1 [Compound 39, 7-(6-(methyl(2,2,6,6-tetramethylpiperidin-4-yl)amino)pyridazin-3-yl)quinoxalin-6-ol]
- Rating (based on mHTT potency) (mHTT): *** (a pIC50 value between 6.5 and 7.0 is indicated by three stars (***))
- mHTT pIC50 (mHTT): 6.946
- tHTT pIC50 (tHTT): 6.9105

Structure (SMILES): Cc1cc2cc(-c3ccc(N(C)C4CC(C)(C)NC(C)(C)C4)nn3)c(O)cc2c(C#N)n1 [Compound 10, 7-hydroxy-3-methyl-6-(6-(methyl(2,2,6,6-tetramethylpiperidin-4-yl)amino)pyridazin-3-yl)isoquinoline-1-carbonitrile]
- Rating (based on mHTT potency) (mHTT): **** (a pIC50 value between 7.0 and 7.5 is indicated by four stars (****))
- mHTT pIC50 (mHTT): 7.4395
- tHTT pIC50 (tHTT): 7.3875

Structure (SMILES): Cc1ccc2cc(-c3ccc(N(C)C4CC(C)(C)NC(C)(C)C4)nn3)c(O)cc2n1 [Compound 47, 2-methyl-6-(6-(methyl(2,2,6,6-tetramethylpiperidin-4-yl)amino)pyridazin-3-yl)quinolin-7-ol]
- Rating (based on mHTT potency) (mHTT): *** (a pIC50 value between 6.5 and 7.0 is indicated by three stars (***))
- mHTT pIC50 (mHTT): 6.8415
- tHTT pIC50 (tHTT): 6.92

Structure (SMILES): Cc1nc(-c2ccc(-c3ccc(N(C)C4CC(C)(C)NC(C)(C)C4)nn3)c(O)c2)c[nH]1 [Compound 59, 2-(6-(methyl(2,2,6,6-tetramethylpiperidin-4-yl)amino)pyridazin-3-yl)-5-(2-methyl-1H-imidazol-4-yl)phenol]
- Rating (based on mHTT potency) (mHTT): *** (a pIC50 value between 6.5 and 7.0 is indicated by three stars (***))
- mHTT pIC50 (mHTT): 6.678
- tHTT pIC50 (tHTT): 6.5065

Structure (SMILES): Oc1cc2ccccc2cc1-c1ccc(CC2CCNCC2)nn1 [Compound 82, 3-(6-(piperidin-4-ylmethyl)pyridazin-3-yl)naphthalen-2-ol]
- mHTT pIC50 (mHTT): <5
- tHTT pIC50 (tHTT): <5

— US20240216369A1, “THE USE OF A SPLICING MODULATOR FOR A TREATMENT SLOWING PROGRESSION OF HUNTINGTON'S DISEASE” (Novartis AG, priority 2019, published 2024)
